Laboratory results: patent US9572890B2, “Oral formulations of mitochondrially-targeted antioxidants and their preparation and use” (MITOTECH SA, priority 2011, dated 2017)

Tests used:
db/db mice = experiment: Hepatic TBA-reactive substance content (MDA) in db/db diabetic mice; type: in vivo; conditions: SkQ1 in 20% glycerol, 250 nmol/kg per day orally for 12 weeks
Description: SkQ1 in 20% glycerol, as described below in Example 8 (250 nmol/kg per day) was orally administered to 10 to 12 week old homozygous db/db mice (n=8), while vehicle db/db (n=8) and non-diabetic control heterozygous db/++ (n=5) mice for 12 weeks. The hepatic TBA-reactive substance content (MDA) was determined by assay according to the method of Mihara et al. ((1978) Anal. Biochem., 86:271-278).

[1] = test system: human endothelial cells EA.hy926; experiment: TNF-α induced death of endothelial cells (MTT test); type: cell-based; conditions: 2 nM pre-incubation 4 d; TNF-α 0.25 to 50 ng/ml for 2 d
Description: Human endothelial cell line EA.hy926 (ATCC Collection; catalog number CRL-2922) was used as a model of vascular endothelium. This cell line is similar to primary HUVEC cell line (Edgell et al. (1983) PNAS, 80(12):3734-7; Edgell et al. (1990) In Vitro Cell Dev Biol., 26(12):1167-72) and widely used as a relevant model for inflammation studies (Riesbeck et al. (1998) Clin. Vaccine Immunol., 5:5675-682).
Accordingly, human endothelial cells EA.hy926 were pre-incubated with 0.2 nM SkQR1 or 2 nM SkQ1 solution in Dulbecco's Modified Eagle's Medium (DMEM) supplemented with 10% of fetal serum (Example 1) for 4 d. After that the cells were incubated overnight with fresh DMEM medium with 0.2% of fetal serum. The cells were incubated 2 d with TNF-α (0.25 ng/ml to 50 ng/ml) and cell death was monitored using standard MTT test (Berridge et al. (1996) Biochemica, 4:14-9). The data from this assay is shown as means±S.E. at least for 3 separate experiments.

ICAM-1 mRNA = ICAM-1 mRNA level in aortas of old mice; type: in vivo; conditions: 24 months old C57Black/CBA mice; SkQ1 in drinking water for 7 months
Description: As described above in Example 7A, above, the expression of ICAM-1 is elevated under many pathological vascular conditions. SkQ1 efficacy in reducing ICAM-1 expression in vivo was tested on mice. 30 hybrid male C57Black/CBA mice were divided into 3 experimental groups (10 animals in each group) at the beginning of the experiment. The group “Young mice” included mice at the age of 6 months. Groups “Old mice” and “Old mice, SkQ1” included mice at the age of 24 months. The group “Old mice, SkQ1” had free access to drinking water with 100 nM water-dissolved SkQ1 per 1 kg of body weight for 7 months. After this period, the animals were decapitated. Aortas were excised, and total RNA was isolated using […] Blood and Tissue kit (QIAGEN), reverse-transcribed into cDNA, and used for quantitative real-time PCR analysis of ICAM-1 mRNA level. For the normalization procedure the average geometry of expression levels of housekeeping genes GAPDH and RPL32 was used Data are shown as means±S.E.M.

[2] = test system: cytokines (IL-6, IL-8) protein secretion; experiment: IL-6, IL-8 protein secretion induced by TNF-α in EAhy926 cells (ELISA); type: cell-based, human; conditions: 0.2 nM for 4 d; TNF-α 5 ng/ml for 15 h
From the text: (§1) The effects of SkQ1 on ICAM-1 mRNA expression and cytokines (IL-6, IL-8) protein secretion induced by TNF-α in EAhy926 human endothelial cells (ATCC collection; catalog number CRL-2922) were examined. TNF-α is a central proinflammatory cytokine stimulating expression of cell adhesion molecules and many inflammatory cytokines. Anti-inflammatory properties of many drugs often rely on their ability to inhibit expression of pro-inflammatory cytokines induced by TNF-α using EAhy926 endothelial cells (Edgell et al. (1983) Proc. Natl. Acad. Sci. USA, 80:3734-7; Lombardi et al. (2009) Eur. J. Cell. Biol., 88:731-42; Manea et al. (2010) Cell Tissue Res., 340:71-9).
(§2) 300,000 cells were plated on 60 mm^2 culture dishes and after attachment were treated with an SkQ1 solution (0.2 nM in DMEM medium with 10% fetal serum) for 4 d, and then stimulated with TNF-α (0.05 ng/ml for 4 h for ICAM-1 or 5 ng/ml for 15 h for cytokines, respectively). ICAM-1 mRNA expression was determined by real-time PCR (Okada et al. (2005) Invest. Ophtalmol. Vis. Sci., 46:4512-8). Secretion of IL-6 and IL-8 was evaluated by ELISA (Toma et al. (2009) Biochem. Biophys. Res. Commun., 390:877-82; Volanti et al. (2002) Photochem. Photobiol., 75:36-45.) The data is shown as means±S.E. at least for 3 separate experiments.

LPS-induced septic shock = experiment: LPS/D-GalN-induced septic shock, survival; type: in vivo, BALB/c mice
Description: Induction of the septic shock was performed as follows: 43 male BALB/c mice with free food and water access were divided onto 4 experimental groups. Group “K” got water without drugs. Groups “SkQ 50,” “SkQ 250,” and “SkQ 1250” were daily parenterally treated with pharmaceutical form of SkQ1 in water comprising 50 nmol/kg, 250 nmol/kg, and 1250 nmol/kg accordingly. After 3 weeks of SkQ1 treatment animals were intraperitonially injected with […] LPS and 700 mg/kg D-galactosamine (D-GalN) inducing septic shock leading to death of 50% of untreated control animals (LD50 dose). Death of animals were registered after 4 d of septic shock induction.

[3] = Stability of MTAs in liquid solvents (degradation rate); type: physicochemical
Description: Liquid solvents were also tested for their ability to stabilize representative MTAs SkQ1 and SkQR1. The solvents tested were water solutions of glycerol (10% to 100%), 50% lactulose, and 1,2-propylene glycol (10% to 100%, at 60° C.). Some representative results are shown below (Table 1).

ICAM-1 mRNA expression = ICAM-1 mRNA expression induced by TNF-α in EAhy926 cells (real-time PCR); type: cell-based, human; conditions: 0.2 nM for 4 d; TNF-α 0.05 ng/ml for 4 h
From the text: as §1, §2

[4] = Stability in dark plastic or glass vials (light sensitivity); type: physicochemical
From the text: Accordingly, one of the ways to further improve or increase stability of SkQ liquid compositions during storage and transportation is to protect it from light.

In the case of `CC1=C(C)C(=O)C(CCCCCCCCCC[P+](c2ccccc2)(c2ccccc2)c2ccccc2)=CC1=O` [SkQ1], the “MDA levels in the liver” value (db/db mice) is reported as “significantly lowered”, the “cell death compared to control without MTA” value [1] is reported as “greatly reduced” and the “ICAM-1 mRNA levels in aorta of treated old mice compared to the control group” value (ICAM-1 mRNA) is reported as “significantly lowered”. The “expression of inflammatory cytokines (IL-6, IL-8)” value [2] was “prevents excessive expression”, the “survival of mice following LPS/D-GalN treatment” value (LPS-induced septic shock; SkQ1 in water 50, 250, 1250 nmol/kg daily parenterally for 3 weeks, death registered after 4 d) was “significantly improved” and the “survival, significance of the effect” value (LPS-induced septic shock; dose of 50 nmol/kg, p=0.03) was “statistically significant effect”. The “Degradation rate, percent per day” value ([3]; 400 mkM in 10% 1,2-propylene glycol, at 60° C.) was 0.47 percent per day, the “Degradation rate, percent per day” value ([3]; 400 mkM in 10% Glycerol) was 0.61 percent per day and the “Degradation rate, percent per day” value ([3]; 400 mkM in 20% Glycerol) was 0.51 percent per day. For the same molecule, the “Degradation rate, percent per day” value ([3]; 400 mkM in 30% Glycerol) was 0.53 percent per day, the “Degradation rate, percent per day” value ([3]; 400 mkM in 40% Glycerol) was 0.91 percent per day and the “Degradation rate, percent per day” value ([3]; 400 mkM in 50% 1,2-propylene glycol, at 60° C.) was 0.06 percent per day. The “Degradation rate, percent per day” value ([3]; 400 mkM in 50% Glycerol) was 1.54 percent per day, the “Degradation rate, percent per day” value ([3]; 400 mkM in 50% lactulose) was 9.01 percent per day and the “Degradation rate, percent per day” value ([3]; 400 mkM in 60% Glycerol) was 1.92 percent per day. For the same molecule, the “Degradation rate, percent per day” value ([3]; 400 mkM in 70% Glycerol) was 2.4 percent per day, the “Degradation rate, percent per day” value ([3]; 400 mkM in 80% Glycerol) was 3.2 percent per day and the “Degradation rate, percent per day” value ([3]; 400 mkM in 90% Glycerol) was 4.18 percent per day. For the same molecule, the “Degradation rate, percent per day” value ([3]; 400 mkM in 100% 1,2-propylene glycol, at 60° C.) was 0.18 percent per day, the “expression of ICAM-1” value (ICAM-1 mRNA expression) was “prevents excessive expression” and the stability [4] was “significantly increased”.
